# ChEMBL document CHEMBL3885861, “Open TG-GATES”
# Organism: Rattus norvegicus
# Assay: Open TG-GATES - Regimen: Single
# Format: toxicity, organism-based, Sprague-Dawley
# Parameters: regimen Single, gender Male, age 6 weeks
# Details: in vivo, po, 0 mg/kg, route gavage, dose level Control; for APTT / Bas / Eos / Fbg / Hb / Ht / Lym / MCH / MCHC / MCV / Mono / Neu / PT / Plat / RBC / Ret / WBC: tissue Blood; for KIDNEY_L / KIDNEY_R / KIDNEY_TOTAL: tissue Kidney; for LIVER: tissue Liver; for ALP / ALT / AST / CRE / DBIL / GLC / IP / K / LDH / Na / PL / RALB / TBIL / TC / TG / TP / gamma-GTP: tissue Plasma
compound,measurement,setting,value
CC(C)Cc1ccc(C(C)C(=O)O)cc1 (centres undefined) [IBUPROFEN],TERMINAL_BW,3 h,204.9 g
same,APTT,3 h,21.3 s
same,Bas,3 h,0%
same,Eos,3 h,1%
same,Fbg,3 h,277 mg/dL
same,Hb,3 h,13.2 g/dL
same,Ht,3 h,38.4%
same,Lym,3 h,72.8%
same,MCH,3 h,21.5 pg
same,MCHC,3 h,34.3%
same,MCV,3 h,62.7 fL
same,Mono,3 h,2%
same,Neu,3 h,23.6%
same,PT,3 h,15.8 s
same,Plat,3 h,113 x10_4/uL
same,RBC,3 h,612.8 x10_4/ul
same,Ret,3 h,7.9%
same,WBC,3 h,79.6 x10_2/uL
same,KIDNEY_L,3 h,0.9 g
same,KIDNEY_R,3 h,1 g
same,KIDNEY_TOTAL,3 h,1.9 g
same,LIVER,3 h,9.3 g
same,ALP,3 h,1578.8 IU/L
same,ALT,3 h,42.4 IU/L
same,AST,3 h,81.8 IU/L
same,CRE,3 h,0.2 mg/dL
same,DBIL,3 h,0 mg/dL
same,GLC,3 h,183 mg/dL
same,IP,3 h,8.2 mg/dL
same,K,3 h,4 meq/L
same,LDH,3 h,274 IU/L
same,Na,3 h,142 meq/L
same,PL,3 h,130.4 mg/dL
same,RALB,3 h,3 g/dL
same,TBIL,3 h,0.018 mg/dL
same,TC,3 h,72.6 mg/dL
same,TG,3 h,51 mg/dL
same,TP,3 h,5.4 g/dL
same,gamma-GTP,3 h,1.2 IU/L
same,TERMINAL_BW,6 h,200 g
same,Bas,6 h,0%
same,Eos,6 h,0.8%
same,Fbg,6 h,288.8 mg/dL
same,Hb,6 h,13.6 g/dL
same,Ht,6 h,40%
same,Lym,6 h,82.2%
same,MCH,6 h,21.7 pg
same,MCHC,6 h,34%
same,MCV,6 h,63.8 fL
same,Mono,6 h,1.8%
same,PT,6 h,15.9 s
same,Plat,6 h,118.6 x10_4/uL
same,RBC,6 h,627 x10_4/ul
same,Ret,6 h,7.8%
same,WBC,6 h,96.9 x10_2/uL
same,KIDNEY_L,6 h,0.9 g
same,KIDNEY_R,6 h,0.9 g
same,KIDNEY_TOTAL,6 h,1.9 g
same,LIVER,6 h,8.8 g
same,ALP,6 h,1383.4 IU/L
same,ALT,6 h,39.6 IU/L
same,AST,6 h,75.4 IU/L
same,CRE,6 h,0.2 mg/dL
same,DBIL,6 h,0 mg/dL
same,GLC,6 h,178 mg/dL
same,IP,6 h,8.9 mg/dL
same,K,6 h,4.2 meq/L
same,LDH,6 h,236.2 IU/L
same,Na,6 h,140.6 meq/L
same,PL,6 h,132.2 mg/dL
same,RALB,6 h,2.9 g/dL
same,TBIL,6 h,0.028 mg/dL
same,TC,6 h,73.2 mg/dL
same,TG,6 h,69.8 mg/dL
same,TP,6 h,5.4 g/dL
same,gamma-GTP,6 h,1.2 IU/L
same,TERMINAL_BW,9 h,198.1 g
same,APTT,9 h,23.4 s
same,Bas,9 h,0%
same,Eos,9 h,0.6%
same,Fbg,9 h,287 mg/dL
same,Hb,9 h,13 g/dL
same,Ht,9 h,38.7%
same,Lym,9 h,79.6%
same,MCH,9 h,21.6 pg
same,MCHC,9 h,33.8%
same,MCV,9 h,64 fL
same,Mono,9 h,1.8%
same,Neu,9 h,17%
same,PT,9 h,15.9 s
same,Plat,9 h,125.1 x10_4/uL
same,RBC,9 h,604.6 x10_4/ul
same,Ret,9 h,7.4%
same,WBC,9 h,76.6 x10_2/uL
same,KIDNEY_L,9 h,0.9 g
same,KIDNEY_R,9 h,0.9 g
same,KIDNEY_TOTAL,9 h,1.8 g
same,LIVER,9 h,8.2 g
same,ALP,9 h,1448.2 IU/L
same,ALT,9 h,36.6 IU/L
same,AST,9 h,73.2 IU/L
same,CRE,9 h,0.2 mg/dL
same,DBIL,9 h,0.006 mg/dL
same,GLC,9 h,178 mg/dL
same,IP,9 h,9.6 mg/dL
same,K,9 h,4.1 meq/L
same,Na,9 h,141.4 meq/L
same,PL,9 h,130.4 mg/dL
same,RALB,9 h,2.9 g/dL
same,TBIL,9 h,0.026 mg/dL
same,TC,9 h,72.8 mg/dL
same,TG,9 h,54.4 mg/dL
same,TP,9 h,5.5 g/dL
same,gamma-GTP,9 h,1.2 IU/L
same,TERMINAL_BW,24 h,213.6 g
same,APTT,24 h,20.3 s
same,Bas,24 h,0%
same,Eos,24 h,1.2%
same,Fbg,24 h,306 mg/dL
same,Hb,24 h,13.1 g/dL
same,Ht,24 h,38.6%
same,Lym,24 h,79.8%
same,MCH,24 h,21.4 pg
same,MCHC,24 h,33.8%
same,MCV,24 h,63.5 fL
same,Mono,24 h,3.2%
same,Neu,24 h,15.2%
same,PT,24 h,16.5 s
same,Plat,24 h,124.1 x10_4/uL
same,RBC,24 h,609.8 x10_4/ul
same,Ret,24 h,7.4%
same,WBC,24 h,117.7 x10_2/uL
same,KIDNEY_L,24 h,0.9 g
same,KIDNEY_R,24 h,0.9 g
same,KIDNEY_TOTAL,24 h,1.8 g
same,LIVER,24 h,10.1 g
same,ALP,24 h,1790.4 IU/L
same,ALT,24 h,47.2 IU/L
same,AST,24 h,77.2 IU/L
same,CRE,24 h,0.2 mg/dL
same,DBIL,24 h,0 mg/dL
same,GLC,24 h,198.8 mg/dL
same,IP,24 h,7.3 mg/dL
same,K,24 h,4.5 meq/L
same,LDH,24 h,235.4 IU/L
same,Na,24 h,141.6 meq/L
same,PL,24 h,145.8 mg/dL
same,RALB,24 h,3.1 g/dL
same,TBIL,24 h,0 mg/dL
